Experiment: Solid-state stability / form conversion under wet or high humidity conditions

## Cl.O=C1CC[C@@]2(O)[C@H]3Cc4ccc(O)c5c4[C@@]2(CCN3CC2CC2)[C@H]1O5 [Form I, naltrexone hydrochloride]
Exposure of solid to humidity
  humidity at which the form converts to Form II: above 70% RH.

## Cl.O=C1CC[C@@]2(O)[C@H]3Cc4ccc(O)c5c4[C@@]2(CCN3CC2CC2)[C@H]1O5 [Form II, naltrexone hydrochloride]
Compared with non-hydrated forms
  stability under wet and/or high humidity environments: more stable

— patent US8399475B2, “Crystalline and amorphous forms of naltrexone hydrochloride” (Mallinckrodt LLC, priority 2007, dated 2013)
